Reference: paper PMC6936460 (Proceedings of the National Academy of Sciences of the …, 2019)

Tested on: P. aeruginosa C1
Test: P. aeruginosa lung infection mouse model
Type: in vivo, C57BL/6 mice
Settings: for median lung bacteria load: 2 times per day for 3 days, n = 8, vehicle 2.51 × 10^7 CFU/g; for inhibition of lung colonization: vs vehicle

With colistin sulfate the “median lung bacteria load” value (2 mg/kg i.v.) was 1.72 × 10^7 CFU/g, the “inhibition of lung colonization” value (2 mg/kg i.v.) was 31% and the “median lung bacteria load” value (4 mg/kg i.v.) was 0.86 × 10^7 CFU/g. For the same substance, the “inhibition of lung colonization” value (4 mg/kg i.v.) was 65%.
